A short description of assay [1]: DPPH radical scavenging assay. Format: biochemical. To be noted: mean ± SD (n = 3). On the procedure: The DPPH radical scavenging assay was determined by the reference method.
In a further assay the target is α-glucosidase (Saccharomyces cerevisiae, UniProt P53341). As to the kind of experiment: biochemical. On the procedure: α-Glucosidase inhibitory activity was established in accordance with the described method with slight modifications. In brief, 100 μL of different concentrations of the sample, 380 μL of p-nitro-phenyl-α-D-glucopyranoside (p-NPG) (0.53 mM), and 20 μL of α-Glucosidase solution (1 units/mL) were mixed in 0.1 M potassium phosphate buffer (pH 6.8). After incubating at 37 °C for 20 min, 500 μL of sodium carbonate (0.1 M) was added in order to quench the reaction. The anti-α-glucosidase activity of the sample was determined by calculating the decrease in absorbance measured at 405 nm by the following equation,
Inhibition (%) = (A0 − A1)/A0 × 100, where A1 is the absorbance of the test sample and A0 is the absorbance of the control.

Assay [2] is described as follows: Hydroxyl radical scavenging assay. Format: biochemical. To be noted: mean ± SD (n = 3). The method, then:
The samples were evaluated for hydroxyl radical scavenging activity based on the previously described method.

Assay [3] is described as follows: Superoxide anion radical scavenging assay (PMS-NADH-NBT). Format: biochemical. To be noted: isolated components (Table 5); mean ± SD (n = 3). The method, then:
Superoxide anion radical (O2^•−) scavenging activity was described earlier with slight changes. […] The reaction was initiated by adding 50 μL of NADH (468 μM) solution to the mixture. After incubating at room temperature for 5 min, the activity of samples was determined by calculating the decrease in absorbance measured at 560 nm by the following equation,
Superoxide anion radical scavenging activity (%) = (A0 − A1)/A0 × 100, where A1 is the absorbance of the test sample and A0 is the absorbance of the control.
IC50 values for the tested activities were determined by linear regression of the percentage of remaining superoxide anion radicals against sample concentration.

The nature of assay [4]: ABTS cation radical scavenging assay. To be noted: mean ± SD (n = 3). It counts as biochemical. The method, then:
The ABTS cation radical scavenging assay was carried out using the reference method.

pIC50: −log10 of the molar value. ≈ marks a conversion by molar mass, not a printed value. A value given as a limit tells only on which side of the number the result lay.

What is called pIC50 is the negative decadic logarithm of the IC50, by convention in mol/L. Read a low pIC50 as a large IC50.

Chain of α-glucosidase (P53341 whole entry): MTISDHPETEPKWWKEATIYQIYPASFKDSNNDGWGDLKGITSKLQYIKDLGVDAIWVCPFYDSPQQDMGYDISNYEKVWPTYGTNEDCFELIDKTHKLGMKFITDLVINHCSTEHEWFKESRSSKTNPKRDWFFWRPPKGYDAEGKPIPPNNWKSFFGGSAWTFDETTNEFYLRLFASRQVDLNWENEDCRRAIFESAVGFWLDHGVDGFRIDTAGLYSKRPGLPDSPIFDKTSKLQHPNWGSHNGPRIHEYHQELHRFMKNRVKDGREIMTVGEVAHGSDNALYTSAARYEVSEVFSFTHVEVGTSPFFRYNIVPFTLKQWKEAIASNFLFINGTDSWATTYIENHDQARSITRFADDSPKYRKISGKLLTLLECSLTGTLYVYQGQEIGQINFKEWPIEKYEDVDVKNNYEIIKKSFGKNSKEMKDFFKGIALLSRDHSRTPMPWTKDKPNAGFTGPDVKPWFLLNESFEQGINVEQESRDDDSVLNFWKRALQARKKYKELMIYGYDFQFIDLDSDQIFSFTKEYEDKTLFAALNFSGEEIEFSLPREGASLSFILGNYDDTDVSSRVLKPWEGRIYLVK

Take `O=C(/C=C/c1ccc(O)c(O)c1)O[C@H](Cc1ccc(O)c(O)c1)C(=O)O` [Rosmarinic acid, rosmarinic acid]: the “IC50 DPPH” value in assay [1] (isolated components (Table 5)) turned out to be 1.87 ± 0.09 µg/mL (≈ 5.19 µM). This compound showed a negative-log IC50 (pIC50) against α-glucosidase of 3.29. For the same compound, the “IC50 Hydroxyl” value in assay [2] (isolated components (Table 5)) was 6.56 ± 4.77 µg/mL (≈ 18.2 µM). Moreover, the “IC50 Superoxide” value in assay [3] came out at 61.62 ± 6.43 µg/mL (≈ 171 µM). The “IC50 ABTS” value in assay [4] (isolated components (Table 5)) was 27.11 ± 14.00 µg/mL (≈ 75.2 µM).

In the case of `Cc1cc(C(C)(C)C)c(O)c(C(C)(C)C)c1` [BHT, Butylated hydroxytoluene, reference compound], the “IC50 DPPH” value amounted to 31.04 ± 2.12 µg/mL (≈ 141 µM) in assay [1] (isolated components (Table 5)) and 39.88 ± 1.30 µg/mL (≈ 181 µM) in assay [1] (solvent extracts (Table 2)). Moreover, the “IC50 Hydroxyl” value in assay [2] (isolated components (Table 5)) is 58.62 ± 2.75 µg/mL (≈ 266 µM); in assay [2] (solvent extracts (Table 2)), 65.90 ± 1.23 µg/mL (≈ 299 µM). Further, the “IC50 ABTS” value was found to be 19.34 ± 2.18 µg/mL (≈ 87.8 µM) in assay [4] (isolated components (Table 5)) and 20.34 ± 1.69 µg/mL (≈ 92.3 µM) in assay [4] (solvent extracts (Table 2)).

In the case of `O=c1c(O)c(-c2ccc(O)cc2)oc2cc(O)cc(O)c12` [Kaempferol, kaempferol], in assay [1] (isolated components (Table 5)), the “IC50 DPPH” value worked out at 2.32 ± 0.17 µg/mL (≈ 8.11 µM). Also, the “IC50 Hydroxyl” value in assay [2] (isolated components (Table 5)) is 11.46 ± 5.60 µg/mL (≈ 40 µM). In addition, in assay [3], the “IC50 Superoxide” value worked out at 541.00 ± 18.47 µg/mL (≈ 1890 µM). Further, the “IC50 ABTS” value in assay [4] (isolated components (Table 5)) is 8.75 ± 0.90 µg/mL (≈ 30.6 µM).

Turning to `O=c1c(O)c(-c2ccc(O)c(O)c2)oc2cc(O)cc(O)c12` [Quercetin, quercetin], the “IC50 DPPH” value in assay [1] (isolated components (Table 5)) was 1.07 ± 0.13 µg/mL (≈ 3.54 µM). Further, the “IC50 Hydroxyl” value in assay [2] (isolated components (Table 5)) turned out to be 9.75 ± 4.39 µg/mL (≈ 32.3 µM). Also, the “IC50 Superoxide” value in assay [3] was 44.08 ± 3.07 µg/mL (≈ 146 µM). In addition, the “IC50 ABTS” value in assay [4] (isolated components (Table 5)) was 11.46 ± 1.82 µg/mL (≈ 37.9 µM).

`O=C(O)/C=C/c1ccc(O)cc1` [p-Coumaric acid, p-coumaric acid]: in assay [1] (isolated components (Table 5)), the “IC50 DPPH” value was determined as 204.13 ± 9.78 µg/mL (≈ 1240 µM). For the same compound, the pIC50 at α-glucosidase is below 2.61. In addition, the “IC50 Hydroxyl” value in assay [2] (isolated components (Table 5)) amounted to 60.70 ± 69.24 µg/mL (≈ 370 µM). Besides, the “IC50 Superoxide” value in assay [3] was 256.00 ± 16.27 µg/mL (≈ 1560 µM). Besides, the “IC50 ABTS” value in assay [4] (isolated components (Table 5)) is 27.01 ± 6.12 µg/mL (≈ 165 µM).

As for `COc1cc(/C=C/C(=O)O)ccc1O` [trans-Ferulic acid, trans-ferulic acid], the “IC50 DPPH” value in assay [1] (isolated components (Table 5)) is 3.81 ± 0.18 µg/mL (≈ 19.6 µM). On α-glucosidase, this compound had a pIC50 below 2.69. For the same compound, the “IC50 Hydroxyl” value in assay [2] (isolated components (Table 5)) worked out at 68.26 ± 65.58 µg/mL (≈ 352 µM). Besides, in assay [3], the “IC50 Superoxide” value came out at 541.00 ± 26.95 µg/mL (≈ 2790 µM). Also, in assay [4] (isolated components (Table 5)), the “IC50 ABTS” value stood at 24.47 ± 16.45 µg/mL (≈ 126 µM).

For `O=C(O)/C=C/c1ccc(O)c(O)c1` [Caffeic acid, caffeic acid], in assay [1] (isolated components (Table 5)), the “IC50 DPPH” value came to 0.81 ± 0.09 µg/mL (≈ 4.5 µM). Moreover, the pIC50 on α-glucosidase was 3.03. Moreover, the “IC50 Hydroxyl” value in assay [2] (isolated components (Table 5)) was 153.04 ± 85.84 µg/mL (≈ 849 µM). Moreover, in assay [3], the “IC50 Superoxide” value came to 57.34 ± 7.44 µg/mL (≈ 318 µM). Besides, the “IC50 ABTS” value in assay [4] (isolated components (Table 5)) was 27.85 ± 18.95 µg/mL (≈ 155 µM).

Source of the values: publication PMC8869629, “Comparison of Various Solvent Extracts and Major Bioactive Components from Portulaca oleracea for Antioxidant, Anti-Tyrosinase, and Anti-α-Glucosidase Activities” (Antioxidants, 2022).
